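Dose response: 5 concentrations. Exposure: 48 h. Format: 96-well plates. Endpoint: linear interpolation; highest concentration if not reached. TGI: concentration producing complete growth inhibition.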
Assays:
Assay in all cases: NCI anticancer screen, dose series, 48 h
786-0 renal = system: 786-0 renal
A549 NSCLC = system: A549 NSCLC
ACHN renal = system: ACHN renal
BT-549 breast = system: BT-549 breast
CCRF-CEM leukemia = system: CCRF-CEM leukemia
DU-145 prostate = system: DU-145 prostate
EKVX NSCLC = system: EKVX NSCLC
HCC-2998 colon = system: HCC-2998 colon
HCT-15 colon = system: HCT-15 colon
HL-60(TB) leukemia = system: HL-60(TB) leukemia
HOP-92 NSCLC = system: HOP-92 NSCLC
HT29 colon = system: HT29 colon
IGROV1 ovarian = system: IGROV1 ovarian
K-562 leukemia = system: K-562 leukemia
KM12 colon = system: KM12 colon
M14 melanoma = system: M14 melanoma
MALME-3M melanoma = system: MALME-3M melanoma
MDA-MB-435 = system: MDA-MB-435
MDA-N = system: MDA-N
MOLT-4 leukemia = system: MOLT-4 leukemia
NCI-H226 lung = system: NCI-H226 lung
NCI-H23 lung = system: NCI-H23 lung
NCI-H460 lung = system: NCI-H460 lung
NCI-H522 lung = system: NCI-H522 lung
NCI/ADR-RES ovarian = system: NCI/ADR-RES ovarian
OVCAR-3 ovarian = system: OVCAR-3 ovarian
OVCAR-4 ovarian = system: OVCAR-4 ovarian
OVCAR-5 ovarian = system: OVCAR-5 ovarian
OVCAR-8 ovarian = system: OVCAR-8 ovarian
RXF 393 renal = system: RXF 393 renal
SF-268 CNS = system: SF-268 CNS
SF-295 CNS = system: SF-295 CNS
SF-539 CNS = system: SF-539 CNS
SK-MEL-2 melanoma = system: SK-MEL-2 melanoma
SK-OV-3 ovarian = system: SK-OV-3 ovarian
SN12C renal = system: SN12C renal
SNB-19 CNS = system: SNB-19 CNS
SNB-75 CNS = system: SNB-75 CNS
SR leukemia = system: SR leukemia
TK-10 renal = system: TK-10 renal
U251 CNS = system: U251 CNS
UACC-257 melanoma = system: UACC-257 melanoma
UACC-62 melanoma = system: UACC-62 melanoma
UO-31 renal = system: UO-31 renal
CAKI-1 renal = system: CAKI-1 renal
HCT-116 colon = system: HCT-116 colon
HOP-62 NSCLC = system: HOP-62 NSCLC
HS 578T breast = system: HS 578T breast
LOX IMVI melanoma = system: LOX IMVI melanoma
RPMI-8226 leukemia = system: RPMI-8226 leukemia
SW-620 colon = system: SW-620 colon
A498 renal = system: A498 renal
COLO 205 colon = system: COLO 205 colon
MCF7 breast = system: MCF7 breast
MDA-MB-231 breast = system: MDA-MB-231 breast
PC-3 prostate = system: PC-3 prostate
SK-MEL-28 melanoma = system: SK-MEL-28 melanoma
SK-MEL-5 melanoma = system: SK-MEL-5 melanoma

## CN1CNc2nc(N)n(C)c(=O)c2C1
786-0 renal
  TGI: > 10 µM
A549 NSCLC
  TGI: > 10 µM
ACHN renal
  TGI: > 10 µM
BT-549 breast
  TGI: > 10 µM
CCRF-CEM leukemia
  TGI: > 10 µM
DU-145 prostate
  TGI: > 10 µM
EKVX NSCLC
  TGI: > 10 µM
HCC-2998 colon
  TGI: > 10 µM
HCT-15 colon
  TGI: > 10 µM
HL-60(TB) leukemia
  TGI: > 10 µM
HOP-92 NSCLC
  TGI: > 10 µM
HT29 colon
  TGI: > 10 µM
IGROV1 ovarian
  TGI: > 10 µM
K-562 leukemia
  TGI: > 10 µM
KM12 colon
  TGI: > 10 µM
M14 melanoma
  TGI: > 10 µM
MALME-3M melanoma
  TGI: > 10 µM
MDA-MB-435
  TGI: > 10 µM
MDA-N
  TGI: > 10 µM
MOLT-4 leukemia
  TGI: > 10 µM
NCI-H226 lung
  TGI: > 10 µM
NCI-H23 lung
  TGI: > 10 µM
NCI-H460 lung
  TGI: > 10 µM
NCI-H522 lung
  TGI: > 10 µM
NCI/ADR-RES ovarian
  TGI: > 10 µM
OVCAR-3 ovarian
  TGI: > 10 µM
OVCAR-4 ovarian
  TGI: > 10 µM
OVCAR-5 ovarian
  TGI: > 10 µM
OVCAR-8 ovarian
  TGI: > 10 µM
RXF 393 renal
  TGI: > 10 µM
SF-268 CNS
  TGI: > 10 µM
SF-295 CNS
  TGI: > 10 µM
SF-539 CNS
  TGI: > 10 µM
SK-MEL-2 melanoma
  TGI: > 10 µM
SK-OV-3 ovarian
  TGI: > 10 µM
SN12C renal
  TGI: > 10 µM
SNB-19 CNS
  TGI: > 10 µM
SNB-75 CNS
  TGI: > 10 µM
SR leukemia
  TGI: > 10 µM
TK-10 renal
  TGI: > 10 µM
U251 CNS
  TGI: > 10 µM
UACC-257 melanoma
  TGI: > 10 µM
UACC-62 melanoma
  TGI: > 10 µM
UO-31 renal
  TGI: > 10 µM

## COc1ccc2c3c1O[C@H]1C(OC)C=CC4C(C2)N(Cc2cccs2)CCC341 (stereo partly specified)
786-0 renal
  TGI: > 100 µM
A549 NSCLC
  TGI: > 100 µM
BT-549 breast
  TGI: > 100 µM
CAKI-1 renal
  TGI: > 100 µM
CCRF-CEM leukemia
  TGI: > 100 µM
EKVX NSCLC
  TGI: > 100 µM
HCC-2998 colon
  TGI: > 100 µM
HCT-116 colon
  TGI: > 100 µM
HCT-15 colon
  TGI: > 100 µM
HL-60(TB) leukemia
  TGI: > 100 µM
HOP-62 NSCLC
  TGI: > 100 µM
HOP-92 NSCLC
  TGI: > 100 µM
HS 578T breast
  TGI: > 100 µM
HT29 colon
  TGI: > 100 µM
IGROV1 ovarian
  TGI: > 100 µM
K-562 leukemia
  TGI: > 100 µM
LOX IMVI melanoma
  TGI: > 100 µM
M14 melanoma
  TGI: > 100 µM
MALME-3M melanoma
  TGI: > 100 µM
MDA-MB-435
  TGI: > 100 µM
MDA-N
  TGI: > 100 µM
MOLT-4 leukemia
  TGI: > 100 µM
NCI-H23 lung
  TGI: > 100 µM
NCI-H460 lung
  TGI: > 100 µM
NCI-H522 lung
  TGI: > 100 µM
NCI/ADR-RES ovarian
  TGI: > 100 µM
OVCAR-3 ovarian
  TGI: > 100 µM
OVCAR-5 ovarian
  TGI: > 100 µM
OVCAR-8 ovarian
  TGI: > 100 µM
RPMI-8226 leukemia
  TGI: > 100 µM
SF-268 CNS
  TGI: > 100 µM
SF-295 CNS
  TGI: > 100 µM
SK-OV-3 ovarian
  TGI: > 100 µM
SN12C renal
  TGI: > 100 µM
SNB-19 CNS
  TGI: > 100 µM
SR leukemia
  TGI: > 100 µM
SW-620 colon
  TGI: > 100 µM
TK-10 renal
  TGI: > 100 µM
UACC-257 melanoma
  TGI: > 100 µM
UO-31 renal
  TGI: > 100 µM

## O=C1NC(=S)N/C1=C\c1ccc(Br)s1
786-0 renal
  TGI: > 100 µM
A498 renal
  TGI: > 100 µM
ACHN renal
  TGI: > 100 µM
BT-549 breast
  TGI: > 100 µM
CAKI-1 renal
  TGI: > 100 µM
CCRF-CEM leukemia
  TGI: > 100 µM
COLO 205 colon
  TGI: > 100 µM
DU-145 prostate
  TGI: > 100 µM
EKVX NSCLC
  TGI: > 100 µM
HCC-2998 colon
  TGI: > 100 µM
HCT-116 colon
  TGI: > 100 µM
HCT-15 colon
  TGI: > 100 µM
HL-60(TB) leukemia
  TGI: > 100 µM
HOP-62 NSCLC
  TGI: > 100 µM
HOP-92 NSCLC
  TGI: > 100 µM
HS 578T breast
  TGI: > 100 µM
HT29 colon
  TGI: > 100 µM
IGROV1 ovarian
  TGI: > 100 µM
K-562 leukemia
  TGI: > 100 µM
KM12 colon
  TGI: > 100 µM
LOX IMVI melanoma
  TGI: > 100 µM
MALME-3M melanoma
  TGI: > 100 µM
MCF7 breast
  TGI: > 100 µM
MDA-MB-231 breast
  TGI: > 100 µM
MDA-MB-435
  TGI: > 100 µM
MDA-N
  TGI: > 100 µM
MOLT-4 leukemia
  TGI: > 100 µM
NCI-H226 lung
  TGI: > 100 µM
NCI-H23 lung
  TGI: > 100 µM
NCI-H460 lung
  TGI: > 100 µM
NCI-H522 lung
  TGI: > 100 µM
OVCAR-3 ovarian
  TGI: > 100 µM
OVCAR-4 ovarian
  TGI: > 100 µM
OVCAR-5 ovarian
  TGI: > 100 µM
PC-3 prostate
  TGI: > 100 µM
RPMI-8226 leukemia
  TGI: 81.3 µM
RXF 393 renal
  TGI: > 100 µM
SF-268 CNS
  TGI: > 100 µM
SF-295 CNS
  TGI: > 100 µM
SK-MEL-2 melanoma
  TGI: > 100 µM
SK-MEL-28 melanoma
  TGI: > 100 µM
SK-MEL-5 melanoma
  TGI: > 100 µM
SK-OV-3 ovarian
  TGI: > 100 µM
SN12C renal
  TGI: > 100 µM
SNB-19 CNS
  TGI: > 100 µM
SR leukemia
  TGI: > 100 µM
SW-620 colon
  TGI: > 100 µM
TK-10 renal
  TGI: > 100 µM
U251 CNS
  TGI: > 100 µM
UACC-257 melanoma
  TGI: > 100 µM
UACC-62 melanoma
  TGI: > 100 µM
UO-31 renal
  TGI: > 100 µM

From PubChem BioAssay (NCI)
